Tests used:
Assay type in all cases: cell-based
Cryptococcus neoformans = experiment: Antifungal activity in vitro, resazurin growth inhibition screen: Cryptococcus neoformans; conditions: Cryptococcus neoformans B66663
Procedure: (§1) The standard susceptibility screen was performed in 96-well plates (U-bottom, Greiner Bio-One). Serial dilutions (2-fold or 4-fold) of 20 mM compound stock solutions were made in 100% DMSO, followed by an intermediate dilution step in water. These serial dilutions (10 μl) were then spotted onto test-plates that could be stored in the dark at 4° C. for a maximum period of 2 weeks. An adequate broad dose-range was included with 64 μM as the highest in-test concentration. […] The different fungal species/isolates (Table 3a) were cryopreserved and 1/1000 diluted in medium just prior to use. A standard inoculum of 200 μl containing 10^3 colony-forming unit (cfu) was then added to each well. A positive control (100% growth=fungal culture without antifungal) and a negative control (0% growth=RPMI-MOPS medium) were included on each plate.

Candida parapsilosis = experiment: Antifungal activity in vitro, resazurin growth inhibition screen: Candida parapsilosis; conditions: Candida parapsilosis B66126
Procedure: as §1

Microsporum canis = experiment: Antifungal activity in vitro, resazurin growth inhibition screen: Microsporum canis; conditions: Microsporum canis B68128
Procedure: as §1

Aspergillus fumigatus = experiment: Antifungal activity in vitro, resazurin growth inhibition screen: Aspergillus fumigatus; conditions: Aspergillus fumigatus B42928
Procedure: as §1

Trichophyton rubrum = experiment: Antifungal activity in vitro, resazurin growth inhibition screen: Trichophyton rubrum; conditions: Trichophyton rubrum B68183
Procedure: as §1

Sporothrix schenkii = experiment: Antifungal activity in vitro, resazurin growth inhibition screen: Sporothrix schenkii; conditions: Sporothrix schenkii B62482
Procedure: as §1

[1] = tested on: Trichophyton mentagrophytes; experiment: Antifungal activity in vitro, resazurin growth inhibition screen: Trichophyton mentagrophytes; conditions: Trichophyton mentagrophytes B70554
Procedure: as §1

Row | Structure (SMILES) | Inf. F pIC50 (Cryptococcus neoformans) | Inf. D pIC50 (Candida parapsilosis) | Inf. B pIC50 (Microsporum canis) | Inf. E pIC50 (Aspergillus fumigatus) | Inf. C pIC50 (Trichophyton rubrum) | Inf. A pIC50 (Sporothrix schenkii) | Inf. G pIC50 [1]
1 | Br.c1ccc2c(c1)CNC(c1ccc3c(c1)OCO3)c1cccn1-2 (stereo not drawn) [Compound 2, 4-(1,3-benzodioxol-5-yl)-5,6-dihydro-4H-pyrrolo[1,2-a][1,4]benzodiazepine .HBr] | <4.19 | <4.19 | 4.42 | <4.19 | 4.96 | <4.19 | 
2 | Clc1cccc2c1CNC(c1ccc3c(c1)OCO3)c1cccn1-2 (stereo not drawn) [Compound 3, 4-(1,3-benzodioxol-5-yl)-7-chloro-5,6-dihydro-4H-pyrrolo[1,2-a][1,4]benzo-diazepine] | 4.30 | <4.19 | 4.91 | <4.19 | 4.47 | <4.19 | 4.71
3 | Br.Clc1cccc2c1CNC(c1ccc3c(c1)OCO3)c1cccn1-2 (stereo not drawn) [Compound 4, 4-(1,3-benzodioxol-5-yl)-7-chloro-5,6-dihydro-4H-pyrrolo[1,2-a][1,4]benzo-diazepine .HBr] | 4.38 | <4.19 | 5.09 | <4.19 | 5.70 | <4.19 | 
4 | Br.Clc1ccc2c(c1)CNC(c1ccc3c(c1)OCO3)c1cccn1-2 (stereo not drawn) [Compound 5, 4-(1,3-benzodioxol-5-yl)-8-chloro-5,6-dihydro-4H-pyrrolo[1,2-a][1,4]benzo-diazepine .HBr] | 4.42 | <4.19 | 5.11 | <4.19 | 5.05 | <4.19 | 
5 | Br.Clc1ccc2c(c1)-n1cccc1C(c1ccc3c(c1)OCO3)NC2 (stereo not drawn) [Compound 6, 4-(1,3-benzodioxol-5-yl)-9-chloro-5,6-dihydro-4H-pyrrolo[1,2-a][1,4]benzo-diazepine .HBr] | 5.10 | <4.19 | 5.00 | <4.19 | 5.15 | 4.21 | 4.50
6 | Br.Clc1cccc2c1-n1cccc1C(c1ccc3c(c1)OCO3)NC2 (stereo not drawn) [Compound 7, 4-(1,3-benzodioxol-5-yl)-10-chloro-5,6-dihydro-4H-pyrrolo[1,2-a][1,4]benzo-diazepine .HBr] | 4.64 | <4.19 | 5.30 | <4.19 | 5.40 | <4.19 | 4.47
7 | Br.COc1cccc2c1CNC(c1ccc3c(c1)OCO3)c1cccn1-2 (stereo not drawn) [Compound 8, 4-(1,3-benzodioxol-5-yl)-5,6-dihydro-7-methoxy-4H-pyrrolo[1,2-a][1,4]benzo-diazepine .HBr] | <4.19 | <4.19 | 4.66 | <4.19 | 5.22 | <4.19 | <4.19
8 | Clc1cccc2c1CN=C(c1ccc3c(c1)OCO3)c1cccn1-2 [Compound 10, 4-(1,3-benzodioxol-5-yl)-7-chloro-6H-pyrrolo[1,2-a][1,4]benzo-diazepine] | 4.48 | <4.19 | 5.00 | <4.19 | 5.70 | <4.19 | 5.30
9 | Br.CCOc1cc2c(cc1C1NCc3c(Cl)cccc3-n3cccc31)CCC2 (stereo not drawn) [Compound 14, 7-chloro-4-(6-ethoxy-2,3-dihydro-1H-inden-5-yl)-5,6-dihydro-4H-pyrrolo[1,2-a]-[1,4]benzodiazepine .HBr] | 4.82 | <4.19 | 5.10 | <4.19 | 5.52 | <4.19 | 
10 | Br.COc1cc2c(cc1C1NCc3c(Cl)cccc3-n3cccc31)CCCC2 (stereo not drawn) [Compound 15, 7-chloro-5,6-dihydro-4-(5,6,7,8-tetrahydro-3-methoxy-2-naphthalenyl)-4H-pyrrolo-[1,2-a][1,4]benzodiazepine .HBr] | <4.19 | <4.19 | <4.19 | <4.19 | 5.40 | <4.19 | <4.19
11 | Cl.Clc1ccc(Cl)c2c1CNC(c1ccc3c(c1)CCC3)c1cccn1-2 (stereo not drawn) [Compound 16, 7,10-dichloro-4-(2,3-dihydro-1H-inden-5-yl)-5,6-dihydro-4H-pyrrolo[1,2-a][1,4]-benzodiazepine .HCl] | <4.19 | <4.19 | 5.00 | <4.19 | 5.40 | <4.19 | 4.52
12 | Cl.Clc1cc(Cl)c2c(c1)CNC(c1ccc3c(c1)CCC3)c1cccn1-2 (stereo not drawn) [Compound 17, 8,10-dichloro-4-(2,3-dihydro-1H-inden-5-yl)-5,6-dihydro-4H-pyrrolo[1,2-a][1,4]-benzodiazepine .HCl] | <4.19 | <4.19 | <4.19 | 5.46 | 5.70 | <4.19 | 4.71
13 | Cl.Clc1ccc2c(c1Cl)CNC(c1ccc3c(c1)CCC3)c1cccn1-2 (stereo not drawn) [Compound 18, 7,8-dichloro-4-(2,3-dihydro-1H-inden-5-yl)-5,6-dihydro-4H-pyrrolo[1,2-a][1,4]-benzodiazepine .HCl] | <4.19 | <4.19 | 4.62 | 4.67 | 5.70 | <4.19 | 5.26
14 | Cl.Clc1cc(Cl)c2c(c1)-n1cccc1C(c1ccc3c(c1)CCC3)NC2 (stereo not drawn) [Compound 19, 7,9-dichloro-4-(2,3-dihydro-1H-inden-5-yl)-5,6-dihydro-4H-pyrrolo[1,2-a][1,4]-benzodiazepine .HCl] | 5.70 | <4.19 | 5.40 | 4.96 | 6.00 | <4.19 | 5.63
15 | Cl.Clc1cccc2c1CNC(c1ccc3c(c1)CCO3)c1cccn1-2 (stereo not drawn) [Compound 26, 7-chloro-4-(2,3-dihydro-5-benzofuranyl)-5,6-dihydro-4H-pyrrolo[1,2-a][1,4]benzo-diazepine .HCl] | <4.19 | 4.25 | 6.00 | 4.85 | 6.25 | <4.19 | 5.70
16 | Cl.Clc1cccc2c1CNC(c1ccc3c(c1)OCC3)c1cccn1-2 (stereo not drawn) [Compound 27, 7-chloro-4-(2,3-dihydro-6-benzofuranyl)-5,6-dihydro-4H-pyrrolo[1,2-a][1,4]benzo-diazepine .HCl] | <4.19 | <4.19 | 5.15 | <4.19 | 6.32 | <4.19 | 4.96
17 | Br.COc1cc2c(cc1C1NCc3c(Cl)cccc3-n3cccc31)OC(C)C2 (stereo not drawn) [Compound 49, 7-chloro-4-(2,3-dihydro-5-methoxy-2-methyl-6-benzofuranyl)-5,6-dihydro-4H-pyrrolo[1,2-a][1,4]benzodiazepine .HBr] | 4.34 | <4.19 | 5.05 | <4.19 | 5.10 | <4.19 | 

— patent US9040524B2, “Antifungal 5,6-dihydro-4H-pyrrolo[1,2-a][1,4]-benzodiazepines and 6H-pyrrolo[1,2-a][1,4]benzodiazepines substituted with bicycle benzene derivatives” (JANSSEN PHARMACEUTICA NV, priority 2010, dated 2015)
